Data reported in patent US12194033B2, “Glycine receptor modulators and methods of use” (University of Pittsburgh—Of the Commonwealth System of …, priority 2017, dated 2025).
“And” between values parts separate entries of the source, which are not always exact repeats. Equal values may be shown once.

What was measured:
CB2 = molecular target: T1, CB2 (Homo sapiens, UniProt P34972); test: PRESTO-TANGO functional assay CB2; assay type: cell-based; conditions: against positive controls, n=3
T1 construct: expressed in transfected cells
T1 sequence (P34972 whole entry): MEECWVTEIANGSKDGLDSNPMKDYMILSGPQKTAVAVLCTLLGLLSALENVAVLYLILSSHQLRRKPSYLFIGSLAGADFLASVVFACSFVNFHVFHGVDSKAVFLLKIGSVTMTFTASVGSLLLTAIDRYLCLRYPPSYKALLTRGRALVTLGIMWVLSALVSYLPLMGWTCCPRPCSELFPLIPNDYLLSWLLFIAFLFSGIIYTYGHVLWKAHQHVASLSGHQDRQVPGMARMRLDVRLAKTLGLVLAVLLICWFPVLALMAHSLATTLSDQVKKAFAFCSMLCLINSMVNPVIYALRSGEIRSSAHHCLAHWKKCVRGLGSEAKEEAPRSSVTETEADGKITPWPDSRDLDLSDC
Method: (§1) The specificity of compound 1 (MJPY1) to act only on glycine receptors was determined. No cross reactivity with other commonly known receptors was detected (FIG. 16 and Table 2). […] Activity is reported in relative luminescence units (RLU) as mean and SEM (n=3).

CB1 = molecular target: T2, CB1 (Homo sapiens, UniProt P21554); test: PRESTO-TANGO functional assay CB1; assay type: cell-based; conditions: against positive controls, n=3
T2 construct: expressed in transfected cells
T2 sequence (P21554 whole entry): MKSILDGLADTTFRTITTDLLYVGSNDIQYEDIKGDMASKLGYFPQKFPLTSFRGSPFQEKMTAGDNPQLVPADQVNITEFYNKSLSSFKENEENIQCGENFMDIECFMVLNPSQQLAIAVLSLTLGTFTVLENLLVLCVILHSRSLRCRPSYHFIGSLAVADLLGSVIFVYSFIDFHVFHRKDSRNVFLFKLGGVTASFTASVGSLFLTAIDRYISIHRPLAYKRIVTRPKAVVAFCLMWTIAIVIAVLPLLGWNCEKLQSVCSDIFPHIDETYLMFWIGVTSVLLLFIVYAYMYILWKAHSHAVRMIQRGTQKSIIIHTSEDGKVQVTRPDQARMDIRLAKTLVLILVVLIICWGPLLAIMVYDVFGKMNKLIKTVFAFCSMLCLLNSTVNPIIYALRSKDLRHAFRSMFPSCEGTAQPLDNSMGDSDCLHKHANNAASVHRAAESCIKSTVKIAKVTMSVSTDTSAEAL
Method: as §1

S296A mutation in α3GlyR = molecular target: T3, S296A mutation in α3GlyR (Homo sapiens, UniProt O75311, S329A); test: Electrophysiology on Xenopus laevis oocytes, S296A mutant; assay type: cell-based; conditions: EC2 agonist, 10 μM compound
T3 construct: expressed in transfected cells; host or cells: Xenopus laevis oocytes
T3 sequence (O75311 34-464 S329A): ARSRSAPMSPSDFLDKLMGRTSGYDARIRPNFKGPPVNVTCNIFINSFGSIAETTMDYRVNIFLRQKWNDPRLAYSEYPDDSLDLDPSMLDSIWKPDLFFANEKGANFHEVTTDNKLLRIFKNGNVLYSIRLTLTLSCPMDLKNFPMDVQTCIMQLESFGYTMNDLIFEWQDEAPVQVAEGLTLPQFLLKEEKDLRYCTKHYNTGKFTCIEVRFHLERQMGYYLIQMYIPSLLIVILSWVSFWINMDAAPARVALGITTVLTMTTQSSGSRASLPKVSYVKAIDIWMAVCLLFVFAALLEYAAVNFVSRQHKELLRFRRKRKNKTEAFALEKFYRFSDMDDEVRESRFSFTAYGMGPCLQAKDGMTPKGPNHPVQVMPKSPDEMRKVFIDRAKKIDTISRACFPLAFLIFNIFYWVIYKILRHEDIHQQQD
Method: MJPY1 potentiates α3GlyR through binding to the THC-binding site near S296 in the transmembrane domain (TMD). Like α3GlyR, but unlike ELIC, the chimera ELIC-α3GlyR containing the α3GlyR TMD is potentiated by MJPY1. The S296A mutation in α3GlyR abolishes compound 1 (MJPY1)'s potentiation. Data were recorded at EC2 agonist for the indicated channels and are reported as the ratio of currents in the presence (I) and absence (Io) of 10 μM compound 1 (MJPY1). Error bars represent SEM (n≥4 oocytes).

[1] = test system: inflammatory markers in the liver and spleen of mice; test: In vivo immune responses by flow cytometry; conditions: 2 mg/kg, ~16 hours prior to sacrifice
Method: Toxicity was evaluated using in vitro Ames test and in vivo immune responses flow cytometry. Compound 1 (MJPY1) at each concentration was tested in three 48-well plates using the TA100 strain Salmonella typhimurium and S9 rat liver extract for base-pair substitution mutations. Error bars represent SEM. Significance (p<0.05) was evaluated compared to the control (0 μM) using one-way ANOVA with the Bonferroni post-hoc test. FIGS. 15A and 15B show flow cytometry evaluation of common inflammatory markers in the liver and spleen of mice in response to compound 1 (MJPY1) treatment. Mice received either 2 mg/kg of MJPY1 (right) or vehicle (left) ˜16 hours prior to sacrifice and tissue collection. Significant differences between the treatment and control were observed only for decreased CD11b+ in the liver of mice treated with MJPY1 (p<0.001). […] Results were analyzed by one-way ANOVA with Bonferroni post-hoc test.

DOR = DOR (Homo sapiens, UniProt P41143); test: Radioligand binding assay, off-target profiling; conditions: 10 M MJPY1, mean, n = 4
DOR, sequence (P41143 whole entry): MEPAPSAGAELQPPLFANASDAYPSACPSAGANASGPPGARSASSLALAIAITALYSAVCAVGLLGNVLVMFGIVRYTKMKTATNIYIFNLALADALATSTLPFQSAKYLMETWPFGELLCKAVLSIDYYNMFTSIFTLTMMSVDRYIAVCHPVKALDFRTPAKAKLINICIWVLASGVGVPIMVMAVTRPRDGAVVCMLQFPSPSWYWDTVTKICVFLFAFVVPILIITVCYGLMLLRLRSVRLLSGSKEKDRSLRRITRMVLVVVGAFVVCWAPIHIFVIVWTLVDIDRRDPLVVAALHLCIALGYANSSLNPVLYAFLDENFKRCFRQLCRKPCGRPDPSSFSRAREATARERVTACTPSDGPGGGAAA

CD1 mice = test: Hargreaves test under CFA-induced hyperalgesic conditions in CD1 mice; assay type: in vivo
Method: Under CFA-induced hyperalgesic conditions, the maximum possible effect, % MPE=(response−baseline)/(cut-off time−baseline), was measured for the application of compound 1 alone (0.05 mg/kg, blue, n=12; 0.01 mg/kg, orange, n=4), morphine alone (0.1 mg/kg, green, n=8), and compound 1 with morphine at three different dosage combinations: 0.05 mg/kg compound 1 with 0.1 mg/kg morphine (light blue, n=6), 0.01 mg/kg compound 1 with 0.1 mg/kg morphine (pink, n=10), and 0.01 mg/kg compound 1 with 0.01 mg/kg morphine (red, n=4). […] Error bars designate the standard error of the mean.
0.05 mg/kg compound 1 was tested for tolerance in CFA-treated mice (red). Under CFA-induced hyperalgesic conditions (24 hours post-application of CFA), 0.05 mg/kg compound 1 was administered to CD1 mice and responses to the Hargreaves test were measured immediately after the initial injection (application time=0) and again after a repeated dose given 1.5 hours (FIG. 7A) or 24 hours (FIG. 7B) after the effects of the first dose wore off. The black circles represent the responses of naïve mice (i.e., no administration of compound 1 or CFA), and the red circles represent the responses of mice receiving compound 1 under CFA-induced hyperalgesic conditions. […] Error bars designate the standard error of the mean (n=4).
Responses of CD1 mice to the Hargreaves test were assessed after application of 0.1 mg/kg of the indicated compounds (black) or vehicle (white) under CFA-induced hyperalgesic conditions as shown in FIGS. 8A-8H. The assessed compounds were compounds 1 (8A), 2 (8B), 3 (8C), 4 (8D), 5 (8E), 6 (8F), 7 (8G), and 8 (8H). […] Error bars designate the standard error of the mean (n≥4).
Dose response curves from the Hargreaves test in mice with a CFA-inflamed left hind paw at 1.5 and 2 hr after intraperitoneal injection of compound 1. Percent Maximum Possible Effect (% MPE) was calculated from paw withdrawal latencies.
Tolerance to compound 1 (MJPY1) and compound 3 (MJPY2) was measured by repeated dosing in the Hargreaves Test. […] Mice (n=6/group) received repeated i.p. injections of vehicle or 0.1 mg/kg compound 1 (MJPY1) or compound 3 (MJPY2) once a day for 5 days. CFA inflammation was induced on day 4, and PWL was measured 0.5 hr before and every 10 min after treatment on day 5. Data were binned to 30-min blocks (mean±SEM).

NC(=O)c1cccc(CNC(=O)c2ccc3c4c(cccc24)CC3)c1 [compound 1, N-[(3-carbamoylphenyl)-methyl]-1,2-dihydroacenaphthylene-5-carboxamide]
agonist or antagonist activity on CB2 (RLU) (CB2): no agonist (top) or antagonist (bottom) activity | agonist or antagonist activity on CB1 (RLU) (CB1): no agonist (top) or antagonist (bottom) activity | potentiation of α3GlyR S296A (I/Io) (S296A mutation in α3GlyR): abolishes | overall immune response to treatment ([1]; liver and spleen): minimal immune response | CD11b+ in the liver vs vehicle ([1]; p<0.001): decreased | % Inhibition DOR (DOR): 7.1% | tolerance (time to paw withdrawal, first vs second dosing) (CD1 mice; 0.05 mg/kg, CD1 mice, CFA, repeated dose 1.5 or 24 hours after first dose wore off): No tolerance | tolerance after repeated dosing (PWL) (CD1 mice; 0.1 mg/kg i.p. once a day for 5 days, CFA on day 4): negligible tolerance | response time for paw withdrawal compared to vehicle (CD1 mice; 0.1 mg/kg, CD1 mice, CFA-induced hyperalgesic conditions): increase in the response time | EC50 for inflammatory pain (% MPE dose response, Hill fit) (CD1 mice; CFA-inflamed left hind paw, 1.5 and 2 hr after intraperitoneal injection (both time points), CD1 mice): ~0.030 mg/kg and ~0.03 mg/kg
